According to patent US10196369B2, “Spirocyclic EBI2 modulators” (Sanford Burnham Prebys Medical Discovery Institute, priority 2013, dated 2019):

biological target: EBI2 (Homo sapiens, UniProt P32249); test: Cell-based luminescent assay of EBI2 modulation (7a,25-OHC stimulated); details: 7a,25-OHC final assay concentration 80 nM, 60 minute incubation
Description: To assess EBI2 modulation, the compounds described herein were assayed in the following cell-based luminescent assay:
1) Plated 600 cells/well in 4 μL of assay media into columns 1-48 of a 1536-well assay plate, using a liquid dispenser.
2) Centrifuged plates at 1000 rpm for 1 minute and covered with lids.
3) Incubated overnight at 37° C., 100% relative humidity, 5% CO2.
1) Centrifuged compound plates containing compounds described herein at 500 rpm for 1 minute.
2) Added compounds into assay plate col 5-48 to final concentration 4-5 uM. Added matching amount of DMSO to positive and negative control wells in columns 1-4.
3) Dispensed 2 uL/well of assay media to columns 1-2 for the positive control wells.
4) Added 2 uL/well of 400 nM 7a,25-OHC (final assay concentration=80 nM) in assay media to columns 3-48 for the negative control and test compound wells.
5) Centrifuged plates at 1000 rpm for 1 minute and re-lid plates.
6) Incubated plates at 37° C., 100% relative humidity, 5% CO2 for 60 minutes.
7) Following 60 minute incubation, delivered 2.5 uL of Detection Reagent solution to each assay plate (Columns 1-48) using a liquid handler.
8) Centrifuged plates at 2000 rpm for 2 minutes and re-lid plates.
9) Incubated plates for 60 minutes at 25 degrees in the dark.
10) Read plates using the Viewlux, Envision or other suitable plate reader using a luminescence detection.
The experimental values were normalized by the difference between values from neutral and stimulator control wells in each plate. Then normalized data was corrected to remove systematic plate patterns due to artifacts such as dispensing tip issues etc.

Sequence of EBI2 (P32249 whole entry): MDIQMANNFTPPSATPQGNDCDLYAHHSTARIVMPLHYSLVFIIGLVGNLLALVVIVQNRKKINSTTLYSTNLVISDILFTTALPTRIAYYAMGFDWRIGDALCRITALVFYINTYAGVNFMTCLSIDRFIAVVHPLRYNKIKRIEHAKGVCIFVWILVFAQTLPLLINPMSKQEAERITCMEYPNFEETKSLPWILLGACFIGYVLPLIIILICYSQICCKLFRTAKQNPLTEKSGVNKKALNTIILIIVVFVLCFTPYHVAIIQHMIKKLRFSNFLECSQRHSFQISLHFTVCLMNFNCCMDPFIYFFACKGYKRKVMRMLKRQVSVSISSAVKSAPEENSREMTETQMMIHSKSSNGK

Compound	IC50 [nM]
O=C(c1ccc(F)cc1)N1CCC2(CC1)CN(C(=O)c1cc3ccc(Cl)cc3[nH]1)C2 [Compound C55, 6-chloroindol-2-yl 7-[(4-fluorophenyl)carbonyl]-2,7-diazaspiro[3.5]non-2-yl ketone]	500 to 5000
O=C(/C=C/c1ccc(Br)cc1)N1CCC2(CC1)CN(Cc1ccc(F)cc1)C2 [Compound C8, (2E)-3-(4-bromophenyl)-1-{2-[(4-fluorophenyl)methyl]-2,7-diazaspiro[3.5]non-7-yl}prop-2-en-1-one]	< 100
bromophenyl)-1-{2-[(4-bromophenyl)carbonyl]-2,7-diazaspiro[3.5]non-7-yl}prop-2-yn-1-one [Compound C66]	100 to 500
O=C(/C=C/c1ccc(Cl)c(Cl)c1)N1CC2(CCN(Cc3ccc(C(F)(F)F)c(F)c3)CC2)C1 [Compound C34, (2E)-3-(3,4-dichlorophenyl)-1-(7-{[3-fluoro-4-(trifluoromethyl)phenyl]methyl}-2,7-diazaspiro[3.5]non-2-yl)prop-2-en-1-one]	100 to 500
O=C(c1ccc(F)cc1)N1CCC2(CC1)CN(C(=O)c1cc3ccc(Br)cc3[nH]1)C2 [Compound C57, 6-bromoindol-2-yl 7-[(4-fluorophenyl)carbonyl]-2,7-diazaspiro[3.5]non-2-yl ketone]	500 to 5000
O=C(c1cc2cc(Cl)ccc2[nH]1)N1CC2(CCN(Cc3ccc(OC(F)(F)F)cc3)CC2)C1 [Compound C36, 5-chloroindol-2-yl 7-{[4-(trifluoromethoxy)phenyl]methyl}-2,7-diazaspiro[3.5]non-2-yl ketone]	100 to 500
O=C(C#Cc1ccc(Br)cc1)N1CCC2(CC1)CN(Cc1ccc(Br)cc1)C2 [Compound C72, 3-(4-bromophenyl)-1-{2-[(4-bromophenyl)methyl]-2,7-diazaspiro[3.5]non-7-yl}prop-2-yn-1-one]	< 100
O=C(/C=C/c1ccc(Cl)c(Cl)c1)N1CC2(CCN(C(=O)c3ccc(C(F)(F)F)cc3)CC2)C1 [Compound C30, (2E)-3-(3,4-dichlorophenyl)-1-(7-{[4-(trifluoromethyl)phenyl]carbonyl}-2,7-diazaspiro[3.5]non-2-yl)prop-2-en-1-one]	< 100
O=C(/C=C/c1ccc(Br)cc1)N1CC2(CCN(C(=O)c3ccc(F)cc3C(F)(F)F)CC2)C1 [Compound C45, (2E)-3-(4-bromophenyl)-1-(7-{[4-fluoro-2-(trifluoromethyl)phenyl]carbonyl}-2,7-diazaspiro[3.5]non-2-yl)prop-2-en-1-one]	< 100
O=C(/C=C/c1ccc(Br)cc1)N1CCC2(CC1)CN(C(=O)c1ccccc1)C2 [Compound C7, (2E)-3-(4-bromophenyl)-1-[2-(phenylcarbonyl)-2,7-diazaspiro[3.5]non-7-yl]prop-2-en-1-one]	< 100
O=C(c1cc2cc(Cl)ccc2[nH]1)N1CCC2(CC1)CN(Cc1ccc(C(F)(F)F)c(F)c1)C2 [Compound C14, 5-chloroindol-2-yl 2-{[3-fluoro-4-(trifluoromethyl)phenyl]methyl}-2,7-diazaspiro[3.5]non-7-yl ketone]	100 to 500
O=C(c1ccc(C(F)(F)F)cc1)N1CCC2(CC1)CN(C(=O)c1cc3ccc(Br)cc3[nH]1)C2 [Compound C58, 6-bromoindol-2-yl 7-{[4-(trifluoromethyl)phenyl]carbonyl}-2,7-diazaspiro[3.5]non-2-yl ketone]	500 to 5000
COc1cc(CN2CCC3(CC2)CN(C(=O)c2cc4cc(Br)ccc4[nH]2)C3)cc(OC)c1 [Compound C62, 7-[(3,5-dimethoxyphenyl)methyl]-2,7-diazaspiro[3.5]non-2-yl 5-bromoindol-2-yl ketone]	100 to 500
O=C(/C=C/c1ccc(Br)cc1)N1CC2(CCN(C(=O)c3ccc(F)cc3)CC2)C1 [Compound C20, (2E)-3-(4-bromophenyl)-1-{7-[(4-fluorophenyl)carbonyl]-2,7-diazaspiro[3.5]non-2-yl}prop-2-en-1-one]	< 100
O=C(/C=C/c1ccc(Cl)c(Cl)c1)N1CC2(CCN(Cc3ccc(Cl)cc3)CC2)C1 [Compound C33, (2E)-3-(3,4-dichlorophenyl)-1-{7-[(4-chlorophenyl)methyl]-2,7-diazaspiro[3.5]non-2-yl}prop-2-en-1-one]	100 to 500
O=C(/C=C/c1ccc(Cl)c(Cl)c1)N1CC2(CCN(Cc3ccc(F)cc3)CC2)C1 [Compound C32, (2E)-3-(3,4-dichlorophenyl)-1-{7-[(4-fluorophenyl)methyl]-2,7-diazaspiro[3.5]non-2-yl}prop-2-en-1-one]	100 to 500
O=C(/C=C/c1ccc(Cl)c(Cl)c1)N1CC2(CCN(C(=O)c3ccc(-c4nnn[nH]4)cc3)CC2)C1 [Compound C31, (2E)-3-(3,4-dichlorophenyl)-1-{7-[(4-(1H-1,2,3,4-tetraazol-5-yl)phenyl)carbonyl]-2,7-diazaspiro[3.5]non-2-yl}prop-2-en-1-one]	500 to 5000
O=C(/C=C/c1ccc(Br)cc1)N1CCC2(CC1)CN(C(=O)c1ccc(C(F)(F)F)cc1)C2 [Compound C54, (2E)-3-(4-bromophenyl)-1-(2-{[4-(trifluoromethyl)phenyl]carbonyl}-2,7-diazaspiro[3.5]non-7-yl)prop-2-en-1-one]	< 100
O=C(/C=C/c1ccc(Br)cc1)N1CCC2(CC1)CN(C(=O)/C=C/c1ccc(Br)cc1)C2 [Compound C1, (2E)-1-{7-[(2E)-3-(4-bromophenyl)prop-2-enoyl]-2,7-diazaspiro[3.5]non-2-yl}-3-(4-bromophenyl)prop-2-en-1-one]	< 100
O=C(c1ccc(-c2nnn[nH]2)cc1)N1CC2(CCN(C(=O)c3cc4cc(Cl)ccc4[nH]3)CC2)C1 [Compound C16, 5-chloroindol-2-yl 2-[(4-(1H-1,2,3,4-tetraazol-5-yl)phenyl)carbonyl]-2,7-diazaspiro[3.5]non-7-yl ketone]	500 to 5000

Further lines, results first:

IC50 [nM]	Compound
500 to 5000	O=C(C#Cc1ccc(F)cc1)N1CC2(CCN(C(=O)c3ccc(F)cc3)CC2)C1 [Compound C93, 3-(4-fluorophenyl)-1-{7-[(4-fluorophenyl)carbonyl]-2,7-diazaspiro[3.5]non-2-yl}prop-2-yn-1-one]
500 to 5000	O=C(C#Cc1ccc2c(c1)OCO2)N1CCC2(CC1)CN(C(=O)c1ccc(Br)cc1)C2 [Compound I1, 3-(2H-benzo[3,4-d]1,3-dioxolen-5-yl)-1-{2-[(4-bromophenyl)carbonyl]-2,7-diazaspiro[3.5]non-7-yl}prop-2-yn-1-one]
< 100	O=C(C#Cc1ccc(F)cc1)N1CC2(CCN(C(=O)c3ccc(Br)cc3)CC2)C1 [Compound C95, 1-{7-[(4-bromophenyl)carbonyl]-2,7-diazaspiro[3.5]non-2-yl}-3-(4-fluorophenyl)prop-2-yn-1-one]
< 100	O=C(C#Cc1ccc(F)cc1)N1CCC2(CC1)CN(C(=O)c1ccc(Cl)cc1)C2 [Compound C87, 1-{2-[(4-chlorophenyl)carbonyl]-2,7-diazaspiro[3.5]non-7-yl}-3-(4-fluorophenyl)prop-2-yn-1-one]
< 100	O=C(/C=C/c1ccc(Br)cc1)N1CCC2(CC1)CN(C(=O)c1ccc(Cl)cc1)C2 [Compound L1, (2E)-3-(4-bromophenyl)-1-{2-[(4-chlorophenyl)carbonyl]-2,7-diazaspiro[3.5]non-7-yl}prop-2-en-1-one]
100 to 500	O=C(C#Cc1ccc(Cl)cc1)N1CC2(CCN(Cc3ccc(Cl)cc3)CC2)C1 [Compound C85, 3-(4-chlorophenyl)-1-{7-[(4-chlorophenyl)methyl]-2,7-diazaspiro[3.5]non-2-yl}prop-2-yn-1-one]
100 to 500	COc1ccc(C(=O)N2CCC3(CC2)CN(C(=O)C#Cc2ccc(F)cc2)C3)cc1 [Compound C92, 3-(4-fluorophenyl)-1-{7-[(4-methoxyphenyl)carbonyl]-2,7-diazaspiro[3.5]non-2-yl}prop-2-yn-1-one]
100 to 500	O=C(C#Cc1ccc(F)cc1)N1CCC2(CC1)CN(C(=O)c1ccc(Br)cc1)C2 [Compound C99, 1-{2-[(4-bromophenyl)carbonyl]-2,7-diazaspiro[3.5]non-7-yl}-3-(4-fluorophenyl)prop-2-yn-1-one]
100 to 500	COc1ccc(C(=O)N2CC3(CCN(C(=O)C#Cc4ccc(F)cc4)CC3)C2)cc1 [Compound C89, 3-(4-fluorophenyl)-1-{2-[(4-methoxyphenyl)carbonyl]-2,7-diazaspiro[3.5]non-7-yl}prop-2-yn-1-one]
< 100	O=C(C#Cc1ccc(Cl)cc1)N1CCC2(CC1)CN(C(=O)c1ccc(F)cc1)C2 [Compound C77, 3-(4-chlorophenyl)-1-{2-[(4-fluorophenyl)carbonyl]-2,7-diazaspiro[3.5]non-7-yl}prop-2-yn-1-one]
< 100	O=C(C#Cc1ccc(Cl)cc1)N1CCC2(CC1)CN(C(=O)c1ccc(C(F)(F)F)cc1)C2 [Compound C79, 3-(4-chlorophenyl)-1-(2-{[4-(trifluoromethyl)phenyl]carbonyl}-2,7-diazaspiro[3.5]non-7-yl)prop-2-yn-1-one]
< 100	O=C(C#Cc1ccc(Cl)cc1)N1CC2(CCN(C(=O)c3ccc(Cl)cc3)CC2)C1 [Compound C84, 3-(4-chlorophenyl)-1-{7-[(4-chlorophenyl)carbonyl]-2,7-diazaspiro[3.5]non-2-yl}prop-2-yn-1-one]
